From PubChem BioAssay AID1963826 (Molecular Pharmacology Branch, DTP, NCI, 2024)
pIC50: −log10 of the molar value.

Tested on: 926638-142-R-J1-PDC complex spheroid viability
Assay: Anticancer human tumor 926638-142-R-J1-PDC patient-derived endometrial carcinoma cell line growth inhibition [POLQ]
Conditions: for pIC50: curve of first compound; for viability, T/C: stronger effect = lower value
Description: Multicellular complex tumor spheroid response to Polymerase (POL) inhibitors (novobiocin, ART-558, RP6685) in combination with a variety of drugs and investigational agents in selected tumor cell lines
The POL inhibitors (novobiocin, ART-558, and RP6685) were evaluated both individually and in combination with standard of care and investigational anticancer small molecules within a complex spheroid model of solid tumors. . Complex spheroids include a stromal component modeled by human endothelial cells (HUVEC) and fibroblasts modeled by human mesenchymal stem cells (MSCs). The concentration ranges selected for each drug and investigational agent were based upon clinically achievable concentrations if the clinical Cmax of the agent was known.
Compounds. The drugs and investigational agents: novobiocin (NSC847541), ART-558 (NSC835418), RP-6685 (NSC848927), peposertib (NSC802822), ceralasertib (NSC780249), elimusertib (NSC800525), camonsertib (NSC841442), AZD-1390 (NSC803789), olaparib (NSC753686), talazoparib (NSC767125), rucaparib (NSC756644), sotorasib (NSC818433), MRTX-1133 (NSC836407), SN-38 (NSC673596), topotecan (NSC609699), epotoside (NSC141540), doxorubicin (NSC123127), gemcitabine (NSC613327), 5-fluorouracil (NSC19893), paclitaxel (NSC125973), vemurafenib (NSC761431), MSA-2 (NSC828583), SN-011 (NSC837082), adavosertib (NSC754352), prexasertib (NSC758257), carboplatin (NSC241240) and oxaliplatin (NSC266046), were obtained from the National Cancer Institute (NCI) Developmental Therapeutics Program Chemical Repository (21). The FDA-approved anticancer drug set is available from the Developmental Therapeutics Program at https://dtp.cancer.gov/organization/dscb/obtaining/. […] The stock solutions were prepared in dimethyl sulfoxide (DMSO, Sigma-Aldrich, St. Louis, MO, cat. D2650), except for the platinum compounds which were prepared in saline (Quality Biological, Gaithersburg, MD, cat. 114-055-101), at 800-fold the tested concentration and stored at -70 degrees C prior to their use. All drugs and investigational agents were tested over a range starting from a high concentration at or near the clinical Cmax and decreasing in half-log increments. If the clinical Cmax for an agent had not been determined, the highest concentration tested was 10 microM, except for SN-38, which was tested at a high concentration of 1 microM.
Cell Culture. All cells were maintained in an incubator at 37 degrees C and 5% CO2 with 95% humidity. The PDC lines were cultured according to standard operating procedures established by the NCI PDMR (https://pdmr.cancer.gov). Table 3 of the manuscript, lists the cell lines along with the number of the three cell types plated to form the mct-spheroids and media for tumor cell growth. After thawing, all PDC lines, except 997537-175-T-J1-PDC and 415267-285-R-J2-PDC, were cultured in Matrigel-coated flasks prepared with a working solution of 1X Ham's F-12 nutrient mix, without supplementation (Thermo Fisher Scientific, cat. 11765054), 100 U/mL penicillin-streptomycin (Thermo Fisher Scientific, cat. 15140122), and 2.5% Matrigel (Corning Inc., Corning, NY, cat. 354248) for the first three passages. The two PDC lines 997537-175-T-J1-PDC and 415267-285-R-J2-PDC were cultured on uncoated flasks. The 857933-349-R-J2-PDC line was cultured in 6C/Colon 1B media containing advanced DMEM/F-12 (Thermo Fisher Scientific, cat. 12634028), 10 mM HEPES (Thermo Fisher Scientific, cat. 15630080), 1X GlutaMAX supplement (Thermo Fisher Scientific, cat. 35050061), 0.1 mg/mL primocin (InvivoGen, San Diego, CA, cat. ant-pm-2), 10% defined fetal bovine serum, heat inactivated (HyClone Laboratories Inc., Logan, UT, cat. SH30070.03HI), 50% L-WRN conditioned media (ATCC, cat. CRL-3276), 1.25 mM N-Acetyl-L-cysteine (Sigma-Aldrich, cat. A9165), 10 mM nicotinamide (Sigma-Aldrich, cat. N0636), 1X B-27 supplement (Thermo Fisher Scientific, cat. 17504044), 1X N-2 supplement (Thermo Fisher Scientific, cat. […]

[1] = second compound 0.0316 µM, first compound 0.0316 µM
[2] = second compound 0.0316 µM, first compound 0.1 µM
[3] = second compound 0.0316 µM, first compound 0.316 µM
[4] = second compound 0.0316 µM, first compound 1 µM
[5] = second compound 0.0316 µM, first compound 3.16 µM
[6] = second compound 0.0316 µM, first compound 10 µM
[7] = second compound 0.1 µM, first compound 0.0316 µM
[8] = second compound 0.1 µM, first compound 0.1 µM
[9] = second compound 0.1 µM, first compound 0.316 µM
[10] = second compound 0.1 µM, first compound 1 µM
[11] = second compound 0.1 µM, first compound 3.16 µM
[12] = second compound 0.1 µM, first compound 10 µM
[13] = second compound 0.316 µM, first compound 0.0316 µM
[14] = second compound 0.316 µM, first compound 0.1 µM
[15] = second compound 0.316 µM, first compound 0.316 µM
[16] = second compound 0.316 µM, first compound 1 µM
[17] = second compound 0.316 µM, first compound 3.16 µM
[18] = second compound 0.316 µM, first compound 10 µM
[19] = second compound 1 µM, first compound 0.0316 µM
[20] = second compound 1 µM, first compound 0.1 µM
[21] = second compound 1 µM, first compound 0.316 µM
[22] = second compound 1 µM, first compound 1 µM
[23] = second compound 1 µM, first compound 3.16 µM
[24] = second compound 1 µM, first compound 10 µM
[25] = second compound 3.16 µM, first compound 0.0316 µM
[26] = second compound 3.16 µM, first compound 0.1 µM
[27] = second compound 3.16 µM, first compound 0.316 µM
[28] = second compound 3.16 µM, first compound 1 µM
[29] = second compound 3.16 µM, first compound 3.16 µM
[30] = second compound 3.16 µM, first compound 10 µM
[31] = second compound 10 µM, first compound 0.0316 µM
[32] = second compound 10 µM, first compound 0.1 µM
[33] = second compound 10 µM, first compound 0.316 µM
[34] = second compound 10 µM, first compound 1 µM
[35] = second compound 10 µM, first compound 3.16 µM
[36] = second compound 10 µM, first compound 10 µM
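Note: spheroids exposed to drugs for one week before readout.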
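Throughout, for viability, T/C: percent viability relative to DMSO vehicle control wells set as 100%.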

CNCc1ccc(-c2[nH]c3cc(F)cc4c3c2CCNC4=O)cc1 + COC1C(OC(N)=O)C(O)C(Oc2ccc3c(O)c(NC(=O)c4ccc(O)c(CC=C(C)C)c4)c(=O)oc3c2C)OC1(C)C
pIC50 (second compound 0.0316 µM): < 5.00
pIC50 (second compound 0.1 µM): < 5.00
pIC50 (second compound 0.316 µM): < 5.00
pIC50 (second compound 1 µM): < 5.00
pIC50 (second compound 3.16 µM): < 5.00
pIC50 (second compound 10 µM): < 5.00
viability, T/C [1]: 92%
viability, T/C [2]: 82.2%
viability, T/C [3]: 96%
viability, T/C [4]: 81%
viability, T/C [5]: 87.7%
viability, T/C [6]: 76.7%
viability, T/C [7]: 78.9%
viability, T/C [8]: 99.9%
viability, T/C [9]: 77.2%
viability, T/C [10]: 89.2%
viability, T/C [11]: 80.1%
viability, T/C [12]: 81.2%
viability, T/C [13]: 90.5%
viability, T/C [14]: 81.1%
viability, T/C [15]: 84.9%
viability, T/C [16]: 90.5%
viability, T/C [17]: 101%
viability, T/C [18]: 84.6%
viability, T/C [19]: 77.3%
viability, T/C [20]: 73.9%
viability, T/C [21]: 73.8%
viability, T/C [22]: 89.9%
viability, T/C [23]: 94.8%
viability, T/C [24]: 69%
viability, T/C [25]: 82.3%
viability, T/C [26]: 93.9%
viability, T/C [27]: 90.7%
viability, T/C [28]: 71.2%
viability, T/C [29]: 88.2%
viability, T/C [30]: 85.2%
viability, T/C [31]: 89.8%
viability, T/C [32]: 79.9%
viability, T/C [33]: 83.8%
viability, T/C [34]: 70.5%
viability, T/C [35]: 84.4%
viability, T/C [36]: 83%

Nc1ccn(C2OC(CO)C(O)C2(F)F)c(=O)n1 (centres undefined) + COC1C(OC(N)=O)C(O)C(Oc2ccc3c(O)c(NC(=O)c4ccc(O)c(CC=C(C)C)c4)c(=O)oc3c2C)OC1(C)C
pIC50 (second compound 0.0316 µM): 6.00
pIC50 (second compound 0.1 µM): 5.80
pIC50 (second compound 0.316 µM): 6.33
pIC50 (second compound 1 µM): 6.03
pIC50 (second compound 3.16 µM): 6.06
pIC50 (second compound 10 µM): 6.33
viability, T/C [1]: 81.7%
viability, T/C [2]: 70.2%
viability, T/C [3]: 49.4%
viability, T/C [4]: 59.7%
viability, T/C [5]: 41.4%
viability, T/C [6]: 26.2%
viability, T/C [7]: 86.2%
viability, T/C [8]: 67.3%
viability, T/C [9]: 61.6%
viability, T/C [10]: 55%
viability, T/C [11]: 50.3%
viability, T/C [12]: 26.3%
viability, T/C [13]: 75.8%
viability, T/C [14]: 61.4%
viability, T/C [15]: 47%
viability, T/C [16]: 52.4%
viability, T/C [17]: 36.8%
viability, T/C [18]: 33.1%
viability, T/C [19]: 81.3%
viability, T/C [20]: 70.7%
viability, T/C [21]: 56.6%
viability, T/C [22]: 45.6%
viability, T/C [23]: 48.7%
viability, T/C [24]: 28.2%
viability, T/C [25]: 79%
viability, T/C [26]: 62.8%
viability, T/C [27]: 55.8%
viability, T/C [28]: 51.4%
viability, T/C [29]: 45.7%
viability, T/C [30]: 25%
viability, T/C [31]: 83.3%
viability, T/C [32]: 73.8%
viability, T/C [33]: 41.7%
viability, T/C [34]: 46.9%
viability, T/C [35]: 47.1%
viability, T/C [36]: 28.2%
